Data published in the Kinase Knowledgebase extract (Sharma et al. 2016).
pIC50: −log10 of the molar value.

Columns and labels:
[1] = molecular target: PIK3CA (human) (UniProt P42336); experiment: Inhibition of PIK3CA Kinase Activity (Fluorescence Polarization Format Assay)
[2] = molecular target: ERBB2;PIK3CA (human) (UniProt P42336); experiment: Inhibition of ERBB2 and PIK3CA Kinase Activity in MDA361 Cells; conditions: mda-361
Sequence of ERBB2;PIK3CA (human) (P42336 whole entry, looked up): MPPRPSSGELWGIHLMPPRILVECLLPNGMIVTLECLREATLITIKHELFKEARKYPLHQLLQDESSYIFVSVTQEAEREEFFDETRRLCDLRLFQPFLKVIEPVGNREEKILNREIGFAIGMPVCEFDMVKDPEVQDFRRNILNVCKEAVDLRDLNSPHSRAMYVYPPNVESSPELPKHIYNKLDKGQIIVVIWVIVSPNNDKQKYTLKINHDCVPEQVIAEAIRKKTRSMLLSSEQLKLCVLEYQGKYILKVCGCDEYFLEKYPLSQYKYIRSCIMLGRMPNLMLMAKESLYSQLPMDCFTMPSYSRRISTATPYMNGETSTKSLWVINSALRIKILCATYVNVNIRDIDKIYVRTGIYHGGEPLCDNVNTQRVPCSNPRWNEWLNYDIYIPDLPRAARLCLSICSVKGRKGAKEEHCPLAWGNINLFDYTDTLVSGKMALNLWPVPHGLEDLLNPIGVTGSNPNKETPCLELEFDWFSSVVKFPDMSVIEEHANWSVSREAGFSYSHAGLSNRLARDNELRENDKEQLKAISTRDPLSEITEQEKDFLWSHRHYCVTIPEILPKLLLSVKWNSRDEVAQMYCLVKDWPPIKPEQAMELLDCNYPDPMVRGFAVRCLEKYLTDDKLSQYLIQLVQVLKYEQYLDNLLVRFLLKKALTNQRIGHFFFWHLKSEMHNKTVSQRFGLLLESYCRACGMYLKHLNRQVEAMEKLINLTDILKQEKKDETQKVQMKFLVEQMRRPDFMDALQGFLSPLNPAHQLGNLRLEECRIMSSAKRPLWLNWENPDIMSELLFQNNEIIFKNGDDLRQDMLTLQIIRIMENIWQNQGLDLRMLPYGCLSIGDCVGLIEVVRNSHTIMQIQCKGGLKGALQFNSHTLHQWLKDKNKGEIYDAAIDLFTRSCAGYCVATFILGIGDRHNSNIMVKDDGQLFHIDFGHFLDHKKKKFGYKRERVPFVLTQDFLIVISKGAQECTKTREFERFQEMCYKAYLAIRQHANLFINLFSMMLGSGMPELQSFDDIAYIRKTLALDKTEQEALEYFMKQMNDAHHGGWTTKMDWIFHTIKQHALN

Sequence of PIK3CA (human) (P42336 whole entry, looked up): as above

pIC50 [1] | pIC50 [2] | Compound
7.12 |  | CN(C)CCn1ccc2c(N3CCOCC3)nc(-c3cccc(O)c3)nc21
7.37 |  | Oc1cccc(-c2nc(N3CCOCC3)c3cc[nH]c3n2)c1
7.52 |  | O=C(Nc1ccncc1)Nc1ccc(-c2nc(N3CCOCC3)c3ccn(CCN4CCCC4)c3n2)cc1
5.82 |  | Cc1cccc(-c2nc(N3CCOCC3)c3[nH]ccc3n2)c1
6.65 |  | CCNC(=O)Nc1ccc(-c2nc(N3CCOCC3)c3ccn(CCN(C)C)c3n2)cc1
 | > 8.52 | CN(C)CCN(C)C(=O)c1ccc(NC(=O)Nc2ccc(-c3nc(N4CCOCC4)c4ccn(CC(F)(F)F)c4n3)cc2)cc1
